According to PMC8284453 (Antimicrobial Agents and Chemotherapy, 2021):
Values joined by “and” are separate entries in the source; they are usually repeats but may differ in a detail not shown here. Equal values may be shown once. Read-outs that look alike come from different tables or passages of the source.

How the values were obtained:
[1] = tested on: Enterobacterales expressing class A ESBLs; test: organism not typed; assay type: cell-based, E. coli, K. pneumoniae
[2] = tested on: K. pneumoniae 752286 (OXA-48); test: Broth microdilution MIC; assay type: cell-based; conditions: Klebsiella pneumoniae
[3] = tested on: Enterobacterales expressing class A carbapenemases (KPC); test: organism not typed; assay type: cell-based, K. pneumoniae, E. coli, E. cloacae, Klebsiella oxytoca
[4] = tested on: K. pneumoniae ATCC BAA-1705 (KPC-2); test: Broth microdilution MIC; assay type: cell-based; conditions: Klebsiella pneumoniae, ATCCBAA1705
E. coli ESBL4 (CTX-M-15) [5] = test: Broth microdilution MIC; assay type: cell-based; conditions: Escherichia coli
[6] = tested on: Enterobacterales expressing class D oxacillinases (OXA-48/48-like); test: organism not typed; assay type: cell-based, E. coli, K. pneumoniae
[7] = tested on: Enterobacterales expressing class C cephalosporinases; test: organism not typed
[8] = tested on: isogenic strains of E. coli expressing Ambler class A, B, C, and D enzymes; test: microbe, parasite or virus in culture; assay type: cell-based, Escherichia coli; conditions: for Fold increase in MIC compared to vector control: inhibitor fixed at 4 μg/ml
[9] = tested on: E. cloacae ECL01 (TEM-72, ACT-1, P99AmpC); test: Broth microdilution MIC; assay type: cell-based; conditions: Enterobacter cloacae
[10] = tested on: K. pneumoniae 752286 (OXA-48); test: 24-h time-kill assay; assay type: cell-based; conditions: Klebsiella pneumoniae; lowest concentration with ≥3-log10 CFU/ml reduction at 24 h; read-out: MBC
Outline: (§1)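 Bacteria at 5 × 10^5 CFU/ml in CAMHB, incubated at 37°C with shaking at 200 rpm. Viable counts determined at 0, 2, 4, 6, 8 and 24 h by 0.5 log10 serial dilution with overnight regrowth; quantification limit 2 log10 CFU/ml.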

[11] = tested on: K. pneumoniae ATCC BAA-1705 (KPC-2); test: 24-h time-kill assay; assay type: cell-based; conditions: Klebsiella pneumoniae, ATCCBAA1705; lowest concentration with ≥3-log10 CFU/ml reduction at 24 h; read-out: MBC
Outline: as §1

[12] = tested on: E. cloacae ECL01 (TEM-72, ACT-1, P99AmpC); test: 24-h time-kill assay; assay type: cell-based; conditions: Enterobacter cloacae; lowest concentration with ≥3-log10 CFU/ml reduction at 24 h; read-out: MBC
Outline: as §1

E. coli ESBL4 (CTX-M-15) [13] = test: 24-h time-kill assay; assay type: cell-based
Outline: as §1

[14] = tested on: Enterobacterales expressing class C cephalosporinases
[15] = 25 isolates, BLI fixed at 4 μg/ml, AMC 2:1

C[C@@H](O)[C@H]1C(=O)N2C(C(=O)O)=C(SC3CN(C4=NCCS4)C3)[C@H](C)[C@H]12 [Tebipenem]
2 µg/mL: MIC ([14]; P. mirabilis SI-F014 (AmpC, TEM-72))
16 mg/L: MIC [2] | MIC ([3]; K. pneumoniae 847379 (KPC)) | MIC ([6]; K. pneumoniae SI-C17 (OXA-48))
32 mg/L: MIC ([3]; E. cloacae OIMGH49 (p99 AmpC, ACT-2, KPC-2, TEM-1)) | MIC ([3]; K. pneumoniae 845670 (KPC)) | MIC ([3]; K. pneumoniae 897067 (KPC)) | MIC ([3]; K. pneumoniae UMM (KPC-2, SHV-5, TEM-1)) | MIC [4] | MBC [11]
0.5 mg/L: MIC ([6]; K. pneumoniae 515746 (OXA-48), second line) | MIC ([6]; K. pneumoniae BAH (OXA-204)) | MIC ([6]; K. pneumoniae DOV (OXA-48)) | MIC90 [7]
0.03 mg/L: MIC50 [1]
16: Fold increase in MIC compared to vector control ([8]; E. coli expressing CMY-42 (class C))
4 mg/L: MIC ([6]; E. coli 664507 (OXA-48)) | MIC ([6]; E. coli 664520 (OXA-48)) | MIC ([6]; E. coli 664523 (OXA-48)) | MIC ([6]; E. coli 664524 (OXA-48)) | MIC ([6]; E. coli 664526 (OXA-48)) | MIC ([6]; E. coli 664528 (OXA-48)) | MIC ([6]; K. pneumoniae 6299 (OXA-163)) | MIC ([6]; K. pneumoniae 664439 (OXA-48)) | MIC ([6]; K. pneumoniae 664518 (OXA-48))
8: Fold increase in MIC compared to vector control ([8]; E. coli expressing KPC-3 D179Y (class A)) | Fold increase in MIC compared to vector control ([8]; E. coli expressing P99/AmpC (class C))
0.03 µg/mL: MIC ([14]; C. freundii 134390 (AmpC, TEM-1)) | MIC ([14]; E. aerogenes 111707 (AmpC, TEM-1)) | MIC ([14]; E. coli SI-PO26 (AmpC, CMY-2, TEM-1)) | MIC ([14]; K. pneumoniae 129032 (MOX-2, SHV-12, TEM-1)) | MIC ([14]; K. pneumoniae 178279 (AmpC, SHV-12, TEM-1)) | MIC ([14]; K. pneumoniae 212027 (AmpC, FOX-5, TEM-1)) | MIC ([14]; K. pneumoniae 398845 (CMY-2, SHV-12, TEM-1))
2: Fold increase in MIC compared to vector control ([8]; E. coli expressing VEB-9 (class A))
2,048: Fold increase in MIC compared to vector control ([8]; E. coli expressing NDM-1 (class B))
≤ 0. 016 μg/ml: MIC ([14]; E. coli 128 (AmpC, SHV-12, TEM-1, Toho-2)) | MIC ([14]; E. coli 3102 (AmpC, CTX-M-15, TEM-1)) | MIC ([14]; E. coli EC469 (AmpC, SHV-12, TEM-1)) | MIC ([14]; E. coli J53 (AmpC, SHV-5, TEM-1)) | MIC ([14]; K. pneumoniae SI-F100 (CMY-2, SHV-5, TEM-1))
0.25 mg/L: MIC [9] | MBC [12]
0.25 µg/mL: MIC ([14]; S. marcescens 142397 (AmpC, SHV-7, TEM-1)) | MIC ([14]; S. marcescens 156212 (AmpC, SHV-12, TEM-1)) | MIC ([14]; S. marcescens 218068 (AmpC, SHV-7, TEM-1))
0.12 µg/mL: MIC ([14]; E. aerogenes 110099 (AmpC, SHV-12)) | MIC ([14]; E. aerogenes 111902 (AmpC, TEM-1)) | MIC ([14]; E. coli SI-P026TC (CMY-2, TEM-1)) | MIC ([14]; S. marcescens 192478 (AmpC, SHV-12, TEM-1))
> 32 mg/L: MBC [10]
256: Fold increase in MIC compared to vector control ([8]; E. coli expressing OXA-48 (class D)) | Fold increase in MIC compared to vector control ([8]; E. coli expressing OXA-181 (class D))
≤ 0.06 mg/L: MIC (E. coli ESBL4 (CTX-M-15) [5])
0.06 mg/L: MIC90 [1] | MIC50 [7] | MBC (E. coli ESBL4 (CTX-M-15) [13]; Escherichia coli, lowest concentration with ≥3-log10 CFU/ml reduction at 24 h, read-out: MBC)
0.016 mg/L: MIC ([8]; Escherichia coli, read-out: Vector control MIC)
1 mg/L: MIC ([6]; E. coli SI-422 (OXA-48)) | MIC ([6]; E. coli VER (OXA-48)) | MIC ([6]; K. pneumoniae 515746 (OXA-48), first line) | MIC ([6]; K. pneumoniae 722870 (OXA-48)) | MIC ([6]; K. pneumoniae KIRK (OXA-162))
4 mg/L and 8 mg/L: MIC50 [6, 15]
0.06 µg/mL: MIC ([14]; E. coli CH1 (AmpC, CTX-M-15, SHV-1, SHV-5, TEM-1)) | MIC ([14]; K. pneumoniae 217917 (CMY-2, TEM-1)) | MIC ([14]; K. pneumoniae 301313 (AmpC, SHV-12, TEM-1))
16 mg/L and 32 mg/L: MIC90 [6, 15]
≥64 mg/L: MIC50 [3, 15] | MIC90 [3, 15]
≤0.016 to 0.12 mg/L: MIC range [1, 15]
0.5 µg/mL: MIC ([14]; S. marcescens 132253 (AmpC, CTX-M-3, OXA-1, SHV-12, TEM-1)) | MIC ([14]; S. marcescens 134434 (AmpC, SHV-12, TEM-1))
512: Fold increase in MIC compared to vector control ([8]; E. coli expressing GES-5 (class A))
≥ 64 mg/L: MIC50 [3] | MIC90 [3] | MIC ([3]; E. cloacae 847426 (KPC)) | MIC ([3]; E. cloacae 847429 (KPC)) | MIC ([3]; E. coli 786978 (KPC)) | MIC ([3]; K. oxytoca 847537 (KPC)) | MIC ([3]; K. pneumoniae 155140 (AmpC, KPC-2, SHV-12, TEM-1)) | MIC ([3]; K. pneumoniae 845661 (KPC)) | MIC ([3]; K. pneumoniae 845662 (KPC)) | MIC ([3]; K. pneumoniae 845665 (KPC)) | MIC ([3]; K. pneumoniae 845667 (KPC)) | MIC ([3]; K. pneumoniae 845904 (KPC)) | MIC ([3]; K. pneumoniae 847204 (KPC)) | MIC ([3]; K. pneumoniae 847375 (KPC)) | MIC ([3]; K. pneumoniae 847378 (KPC)) | MIC ([3]; K. pneumoniae 847383 (KPC)) | MIC ([3]; K. pneumoniae 847384 (KPC)) | MIC ([3]; K. pneumoniae 847387 (KPC)) | MIC ([3]; K. pneumoniae 847747 (KPC)) | MIC ([3]; K. pneumoniae 848832 (KPC)) | MIC ([3]; K. pneumoniae 848844 (KPC)) | MIC ([6]; K. pneumoniae 664509 (OXA-48)) | MIC ([6]; K. pneumoniae DEL (OXA-232))
8 mg/L: MIC ([3]; K. oxytoca 847539 (KPC)) | MIC ([6]; E. coli 664516 (OXA-48)) | MIC ([6]; E. coli 664522 (OXA-48)) | MIC ([6]; E. coli 664525 (OXA-48)) | MIC ([6]; E. coli 787112 (OXA-48)) | MIC ([6]; K. pneumoniae 664438 (OXA-48))
32: Fold increase in MIC compared to vector control ([8]; E. coli expressing OXA-163 (class D))
4: Fold increase in MIC compared to vector control ([8]; E. coli expressing ACT-17 (class C)) | Fold increase in MIC compared to vector control ([8]; E. coli expressing CMY-2 (class C)) | Fold increase in MIC compared to vector control ([8]; E. coli expressing CTX-M-15 (class A)) | Fold increase in MIC compared to vector control ([8]; E. coli expressing PER-1 (class A)) | Fold increase in MIC compared to vector control ([8]; E. coli expressing SHV-5 (class A)) | Fold increase in MIC compared to vector control ([8]; E. coli expressing SHV-12 (class A)) | Fold increase in MIC compared to vector control ([8]; E. coli expressing TEM-10 (class A), modal MIC, 4 replicates)
bactericidal activity: outcome of 24-h time-kill assay (E. coli ESBL4 (CTX-M-15) [13]; Fig. 3a, CTB 2 μg/ml with BLI at 4 μg/ml, CTB alone 8 μg/ml, amoxicillin 8/clavulanic acid 4 μg/ml, penems 2 μg/ml)
128: Fold increase in MIC compared to vector control ([8]; E. coli expressing OXA-23 (class D))
